Results on eight molecules are retold here after patent US9815783B2, “(3-alkylthio)propenoic acid-derived compounds and their application in cosmetics” (EXSYMOL, priority 2015, dated 2017).

Data set [1] can be described thus: Antioxidant potential against squalene hydroperoxidation by singlet oxygen (quenching, methylene blue, UV-B, HPLC). Particulars: UV-B radiation dose 1.42 J·cm−2, methylene blue photosensitizer. As for the experimental part:
Experimentally, a squalene solution at 5 g/100 mL, a methylene blue solution at 5 mM and a solution of the compound according to the invention (from 1 to 5 mM) or a control compound (methylthiopropylamido acetyl methionine-AMDM) were prepared after being dissolved in 100 mL of methanol (HPLC grade). Then in a UV-B oven, each solution was poured in equal parts into an uncovered Petri dish, in order to be submitted to a radiation dose (1D) of 1.42 J·cm^−2. At the end of the radiation, volumes of the solutions were recovered, adjusted to 20 mL with methanol prior to analysis by HPLC assay and after removal of methylene blue. The “quenching,” rate was then deduced from the following equation: [formula]

Data set [2] relates to HaCaT keratinocytes. Briefly: Viability of HaCaT keratinocytes exposed to UV-B cytotoxic doses (MTT method). In kind it is cell-based. To be noted: Homo sapiens, light or radiation study, UV-B 100 mJ/cm2, MTT after 24 hours, irradiated untreated control 46, non-irradiated 100, read-out: % cell viability; for viability at 100 µM: 0.1 mM in PBS; for viability at 250 µM: 0.25 mM in PBS; for viability at 500 µM: 0.5 mM in PBS. On the procedure:
Test 3: Evidence of the Ability of the (Z)-Isomer Conjugates of Formula (I) to Make Viable a Keratinocyte Cell Line Exposed to UV-B Cytotoxic Doses
Experimentally, the study was also carried out on a cell line of immortalized keratinocytes “HaCaT” seeded in 24-well plates at a rate of 8000 cells per square centimeter, namely 15200 cells per welkin 0.5 ml culture medium (with 10% foetal calf serum).
500 μl of the conjugate according to the invention were added in each well at a concentration from 0.05 to 0.5 mM in PBS. The cells in the presence of active ingredient were then exposed to ultraviolet radiations (UV-B) at the moderate dose of 100 mJ·cm−^2, and then placed into a medium without active ingredient for 24 hours. After removal of the medium, the HaCaT keratinocytes cell viability was also measured using the “MTT method” (solution at 250 μg/ml) and by spectrophotometry (absorbance at 570 nm). Gathering the average values obtained from three independent experiments, the results are presented in table 3 below, in comparison with those obtained for two controls, the non-irradiated cells and the non-treated irradiated cells with the conjugates according to the invention.

A short description of data set [3]: Photo-isomerization of (Z)-isomer conjugates to E-isomer under UV-B irradiation (HPLC). It counts as physicochemical. Particulars: 2.5 mM in methanol with squalene; UV-B irradiation dose 1 J·cm−2; formation of E-isomer by HPLC. As for the experimental part:
Test 4: Evidence of the Ability of the (Z)-Isomer Conjugates of Formula (I) to Absorb Ultraviolet Radiation by Photo-Isomerization
Principle: the aim is to check whether the conjugates according to the invention are able to isomerize under UV-B irradiation.
Experimentally, 2 ml of a squalene solution at 5 g/100 mL and 2 mL of a solution of compound according to the invention at the concentration of 25 mM in methanol were introduced into a 20 mL measuring cylinder, and then supplemented with methanol up to 20 mL. The preparation thus obtained was poured into a Petri dish onto which an irradiation dose of 1 J·cm^−2 was applied in a UV-B oven. At the end of the irradiation, the solutions were collected and analyzed by HPLC dosage. Volumes were previously standardized with methanol.
Chromatographic profiles were thus obtained, and the formation of the E-isomer was investigated. An isomerization rate was then determined by comparison with a control profile.

A short description of data set [4]: Opposition to trans-urocanic acid photo-induced isomerization (HPLC). Particulars: compound 5 mM, irradiation dose 31 mJ·cm−2. On the procedure: Test 5: Evidence of the Ability of the (Z)-Isomer Conjugates of Formula (I) to Oppose the Trans-Urocanic Acid Photo-Induced Isomerization
Principle: the aim is to check whether the conjugates according to the invention are capable of opposing the trans-urocanic acid photo-isomerization.
Experimentally, the study was carried out almost identically as in tests 1 and 4 above. Beforehand, it was checked that under defined experimental conditions, trans-urocanic acid generates a significant amount of cis-urocanic acid that can be measured by HPLC analysis. The irradiation dose (1D) was 31 mJ·cm^−2 for a compound concentration of 5 mM.

The test system of data set [5] is HaCaT keratinocytes. As to the kind of experiment: Cytotoxic potential of sulfoxide and sulfone oxidation by-products on HaCaT keratinocytes (MTT method). In kind it is cell-based. To be noted: 2.5 mM in PBS, average of three independent experiments, control = 100. On the procedure: Test 2: Evidence of the Absence of Cytotoxic Potential of the Oxidation by-Products of the (Z)-Isomer Conjugates of Formula (I)
Experimentally, the test was carried out on a cell line of immortalized keratinocytes “HaCaT” maintained by subculture in a complete culture medium “DMEM” (with 10% foetal calf serum) in a humid atmosphere at 37° C. and 5% CO2. HaCaT cells were seeded in 24-well plates at the rate of 1·10^5 cells per well.
Sulfoxide and sulfone derivatives of (Z)-isomer conjugates of formula (I) were synthesized after a stoichiometric exposure to hydrogen peroxide (H2O2), then purified and finally quantified.
500 μl of sulfoxide and sulfone oxidation by-products from the conjugates according to the invention were added in each well, at the concentration of 2.5 mM in PBS. After removal of the medium, the HaCaT keratinocytes cell viability was measured using the “MTT method” (MTT standing for (4,5-dimethylthiazol-2-yl)-2,5-diphenyltetrazolium bromide) (solution at 500 μg/ml) and by spectrophotometry (absorbance at 550 nm). Expressed as the average values obtained from three independent experiments, the results are gathered in table 2 below, in comparison with those obtained for the non-irradiated cells.

Take `CS/C=C/C(=O)NCCO` [(E)-N-(2-hydroxyethyl)-3-(methylthio)propenamide]: in data set [1] (compound 1 mM in methanol), the “% squalene protection” value came out at 71%.

As for `CS/C=C/C(=O)NCCc1ccc(O)cc1` [(E)-N-(4-hydroxyphenethyl)-3-(methylthio)propenamide], the “% squalene protection” value in data set [1] (compound 1 mM in methanol) was 30%.

Consider `CS/C=C\C(=O)NCCO` [(Z)-N-(2-hydroxyethyl)-3-(methylthio)propenamide], for which the “% squalene protection” value in data set [1] (compound 1 mM in methanol) is reported as 24%. The “% squalene protection” value in data set [1] (compound 5 mM in methanol) is given as 25%. Moreover, in the data set with HaCaT keratinocytes [2], the viability at 100 µM was found to be 64%, the viability at 250 µM is 85% and the viability at 500 µM worked out at 94%. For the same molecule, in data set [3], the “% isomerization” value is reported as 62%. Further, the “% inhibition of trans-urocanic acid photo-isomerization” value in data set [4] is on record as 75%.

Regarding `CS(=O)(=S)/C=C\C(=O)NCCO` (stereo not shown) [(Z)-N-(2-hydroxyethyl)-3-(methylthiosulfonyl)propenamide], the “% cell viability” value in the data set on HaCaT keratinocytes [5] was found to be 93.1%.

Take `CS/C=C\C(=O)NCCc1ccc(O)cc1` [(Z)-N-(4-hydroxyphenethyl)-3-(methylthio)propenamide]: in data set [1] (compound 1 mM in methanol), the “% squalene protection” value came to 35%. Besides, the “% squalene protection” value in data set [1] (compound 5 mM in methanol) amounted to 44%. For the same molecule, in the data set with HaCaT keratinocytes [2], the viability at 100 µM worked out at 70%, the viability at 250 µM was determined as 93% and the viability at 500 µM was 100%. Moreover, the “% isomerization” value in data set [3] is 95%. In addition, in data set [4], the “% inhibition of trans-urocanic acid photo-isomerization” value is 78%.

Turning to `CS(=O)(=S)/C=C\C(=O)NCCc1ccc(O)cc1` (stereo not shown) [(Z)-N-(4-hydroxyphenethyl)-3-(methylthiosulfonyl)propenamide], the “% cell viability” value with HaCaT keratinocytes [5] is 95.0%.

In the case of `CCNC(=O)/C=C\SC` [(Z)-N-ethyl-3-(methylthio)propenamide], the viability at 500 µM with HaCaT keratinocytes [2] came to 86%. The “% isomerization” value in data set [3] turned out to be 60%.

Consider `CSCCCNC(=O)C(CCSC)NC(C)=O` (stereo not shown) [AMDM, methylthiopropylamido acetyl methionine, reference compound], for which the results for the “% squalene protection” value in data set [1] (compound 1 mM in methanol) and in data set [1] (compound 5 mM in methanol) were 3% and 15%, respectively.
